Key:
[1] = system: premature senescent human fibroblasts induced by doxorubicin (HDF); assay: CCK-8 cell survival, doxorubicin-induced premature senescent human fibroblasts; assay type: cell-based; conditions: 100 nM, 4 days; compared to DMSO-treated group; p<0.01; FIG. 1C
Method: (§1) Each cell was treated in a serum-free culture solution containing doxorubicin (0.5 μM) for 4 hours. After washing the cells with a serum-free culture solution, the cells were cultured for 4 days in a culture solution containing 10% FBS, and then cellular aging was confirmed by measuring the level of senescence by staining with senescence-associated beta galactosidase.
(§2) After each sample was dissolved in DMSO, young cells, replicative senescent cells and senescent cells in which premature aging was induced by treating with doxorubicin were treated with 100 nM salinomycin, 100 nM rapamycin, 100 nM ABT263. After incubation for 4 days in a 37° C., 5% CO2 incubator, the degree of cell survival was confirmed by CCK-8 analysis, the degree of cellular aging was confirmed by senescence-associated β-galactosidase (SAβG) staining, p53 and p16 protein expression analysis.
Young cells (1×10^3 cells/well) or senescent cells (2×10^3 cells/well) were dispensed into a 96-well plate, and cultured overnight in a 37° C., 5% CO2 incubator. Salinomycin, ABT263 and rapamycin were treated at each concentration, and then incubated for 4 days in a 37° C., 5% CO2 incubator. […] Then, the absorbance was measured at 450 nm using a Microplate reader.
The degree of cell survival was expressed as a relative value for the absorbance of the control group treated with only DMSO as 100%. […]

[2] = system: replicative senescent human fibroblasts (HDF); assay: Western blot of p53 and p16, replicative senescent human fibroblasts; assay type: cell-based; conditions: FIG. 2C
Method: After dispensing 2×10^5 cells in a 100 mm culture dish, they were cultured in a 37° C., 5% CO2 incubator. When the cells grew to 80-90% in the culture dish, the cells were removed by treatment with trypsin-EDTA, and the number of cells was measured, and the cell population doubling time (PDT) was measured.
By successively subculturing the cells in the same process as described above, replication aging was induced. PDT of young fibroblasts was 36 hours, PDT of replicative senescent fibroblasts was 12 days, PDT of young vascular endothelial cells was 24 hours, and PDT of replicative senescent vascular endothelial cells was 7 days.
After dispensing the cells into a 60 mm culture dish, the cells were cultured overnight in an incubator at 37° C. and 5% CO2. After treatment with salinomycin, ABT263 and rapamycin, it was incubated for 3 days in a 37° C., 5% CO2 incubator. […]
The lysed cells were transferred to a 1.5 ml tube, pipetted 3-4 times, and then left on ice for 20 minutes. After centrifugation at 12,000 rpm for 20 minutes to recover the supernatant, the protein concentration of the supernatant was quantified by BCA analysis. […]

[3] = system: premature senescent retinal pigmented epithelial cells (ARPE) by doxorubicin; assay type: cell-based, human
Method: as §1
Cytotoxicity against young and senescent cells was investigated with a lactate dehydrogenase (LDH) activity kit (Dojindo Molecular Technologies Inc.). Young cells (1×10^3 cells/100 μl/well) or senescent cells (2×10^3 cells/100 μl/well) were dispensed into a 96-well plate, and then cultured overnight in a 37° C., 5% CO2 incubator.
Salinomycin, ABT263 and rapamycin were treated at each concentration, and then incubated for 4 days in a 37° C., 5% CO2 incubator. After transferring the cell culture solution to a 1.5 ml tube, it was centrifuged at 4° C. and 12,000 rpm. 100 μl of the supernatant was dispensed into a 96-well plate, and 100 μl of the LDH measurement solution was added to each well, followed by reaction in a CO2 incubator for 30 minutes. 50 μl of the LDH reaction stop solution was added, and absorbance was measured at 490 nm using a microplate reader. The level of LDH activity was expressed as a relative value based on the absorbance of the control group treated with only DMSO.

[4] = system: premature senescent human fibroblasts induced by doxorubicin (HDF); assay: SAβG activity staining, doxorubicin-induced premature senescent human fibroblasts; assay type: cell-based; conditions: 100 nM, 4 days; compared to DMSO-treated group; FIG. 1A, 1B
Method: as §1, §2
The cells were washed with 1× phosphate buffer solution, and fixed with a phosphate buffer solution containing 3.7% (v/v) paraformaldehyde. After adding 1 mg/ml 5-bromo-4-chloro-3-indolyl-β-D-galactoside, 40 mM citric acid-sodium phosphate (pH 6.0), 5 mM potassium ferricyanide, 5 mM potassium ferrocyanide, 150 mM NaCl, and 2 mM MgCl2 solution, it was reacted at 37° C. for 18 hours. It was stained with eosin as a control stain and cells stained blue in the cytoplasm were identified using an optical microscope. […]

## CC[C@@H](C(=O)[C@@H](C)[C@@H](O)[C@H](C)[C@@H]1O[C@@H]([C@@H](CC)C(=O)O)CC[C@@H]1C)[C@H]1O[C@]2(C=C[C@@H](O)[C@]3(CC[C@@](C)([C@H]4CC[C@](O)(CC)[C@H](C)O4)O3)O2)[C@H](C)C[C@@H]1C [salinomycin]
[1]
  cell survival (CCK-8): decreased significantly
[2]
  expression of p16 protein (Western blot): reduced
  expression of p53 protein (Western blot): reduced
[3]
  cytotoxicity by LDH activity: significantly increased
[4]
  SAβG activity: significantly reduced

— patent publication US12083093B2, “Composition for preventing or treating cellular senescence-related diseases comprising salinomycin as effective component” (RESEARCH COOPERATION FOUNDATION OF YEUNGNAM UNIVERSITY, priority 2018, dated 2024)
